Source: patent publication US20230172971A1, “ANTIBIOTIC AND ANTI-INFLAMMATORY COMPOSITIONS AND METHODS OF USE” (priority 2020, published 2023)

Legend:
MRSA OU11 = test: Resazurin cell viability assay, MRSA OU11; assay type: cell-based, Staphylococcus aureus
Method: Cell viability assays with resazurin were performed with MRSA OU11 cells grown in TSB as similar to the procedure of cell-permeation assays until they reach a density of ˜7×10^9 CFU/mL. Then the cell culture was transferred into a 96-well plate (100 μL/well) for BPEI or polymyxin B (PmB) treatments at varied concentrations from 64-512 μg/mL. Controls of untreated and positive control of 5% bleach were also conducted. The plate was incubated at 37° C. overnight. Resazurin (50 μL; final concentration of 50 μg/mL) was then added and, after 1 hour of incubation, the fluorescence intensity was measured (λex=560 nm; λen, =590 nm).

Gram-negative bacteria = settings: paradigm; cited from earlier work
E. coli BAA-2452 = test: H33342 bisbenzimide dye uptake assay, E. coli BAA-2452; assay type: cell-based, Escherichia coli; settings: E. coli BAA-2452, 7×10^8 CFU/mL, non-lethal concentration
Method: Overnight culture of E. coli BAA-2452™ and K. pneumoniae BAA-2146™ were used to inoculate fresh CAMHB media for another 5 hr at 35° C. with shaking. Bacterial cells were collected by centrifugation at 6000 rpm for 40 min and resuspended in PBS. The OD600 of the cell suspension was adjusted to about 1.0 and kept at room temperature during the experiment. Aliquots (180 μL/well) of the cell suspension were transferred to a 96-well flat-bottom black plate in the format of column 1, PBS blank; column 2, untreated control cells; column 3, cells+potentiator (sub-lethal concentration). Five technical replicates of each group were conducted. Fluorescent probe Hoechst 33342 bisbenzimide (H33342) was added (20 μL) to each well with a final concentration of 5 μM. Fluorescence was read immediately after the addition of H33342 by a Tecan Infinite M20 plate reader with the excitation and emission filters of 355 and 460 nm for H33342. Fluorescence data were normalized to the emission before cells were added in the PBS control, and they were plotted against time to show the cellular uptake of H33342 over 10 min. Control experiments of dye+600-Da BPEI were unchanged from fluorescence emission values obtained with dye only.

Gram-positive bacteria = settings: paradigm; cited from earlier work

polymyxin B
cell viability (resazurin) (MRSA OU11; MRSA OU11, 64 μg/mL PmB): greater cell death than 512 μg/mL 600-Da BPEI
cell viability (resazurin) (MRSA OU11; MRSA OU11, 512 μg/mL PmB): complete loss of MRSA OU11 viability
cell viability (resazurin) (MRSA OU11; MRSA OU11, ~7×10^9 CFU/mL, 64-512 μg/mL, overnight): more lethal
MIC (Gram-negative bacteria): ≤ 2 µg/mL
intracellular accumulation of H33342 (fluorescence) vs untreated cells (E. coli BAA-2452): increases
concentration required (MIC) (Gram-positive bacteria): ≥ 32 µg/mL
